This passage reports melting point results from a melting point compilation (Tetko et al.; mined from patent text by program, amines drawn as free bases though some values may be those of a salt).

Some results are limits rather than exact numbers.

By melting point is commonly meant the temperature, or range, at which the solid turns liquid.

Molecule `Cc1cn(C)c2c1C(=O)CC(c1ccccc1)C2` (stereo unspecified) gave a melting point of 155 to 156 °C. In the case of `CC(=O)n1nc(-c2ccncc2)nc1-c1ccncc1` it was 156 to 158 °C; in that of `c1ccc(-c2ccc(-c3cc4ccccc4[nH]3)cc2)cc1`, 301 °C. In the case of `CC(C)(C)c1cc(SCCc2nncs2)cc(C(C)(C)C)c1O` it was 118 to 120 °C; in that of `O=C1NCN(c2ccccc2)C12CCN(CCCn1c(=O)[nH]c3cccc(Cl)c31)CC2`, 258 °C; in that of `CC(C)(O)C#Cc1ccc(C#N)cc1Cl`, 63 to 65 °C.

The molecule `CCNc1ccccc1S(=O)(=O)C[N+](=O)[O-]` gave a melting point of 82 °C. `OCCOCCNCc1ccc(-c2cc3ncnc(Nc4ccc5[nH]ccc5c4)c3s2)cc1` came in with a melting point of 111 to 119 °C. In the case of `COC(=O)C1=C(CF)NC(C)=C(C(=O)OC(C)C)C1c1cccc(OC)c1OC` (stereo unspecified) it was 89 to 91 °C; in that of `N#Cc1nn(-c2c(Cl)cc(Cl)cc2Cl)cc1C1CC1(Cl)Cl` (stereo unspecified), 158 °C.

In the case of `CCSc1cccc(OC(F)(F)F)c1S(N)(=O)=O`, the melting point came out at 146 °C. The figure for `O=C(O)Cc1cccc(Oc2ccccc2F)c1[N+](=O)[O-]` is 144 to 146 °C. In the case of `CCOC(=O)c1nc(C=Cc2ccc(Cl)cc2)oc1C` it was 105 to 106 °C; in that of `CC(C)c1cccc(C(C)C)c1NC(=O)N(Cc1ccccc1)[C@H]1CC[C@@H](c2ccccc2)CC1`, 148 to 149 °C; in that of `N#CC1=C(c2cc3ccccc3o2)Nc2n[nH]cc2C1c1cccc2nonc12` (stereo unspecified), > 270 °C. The figure for `O=C(O)COc1c(-c2cccc(C(F)(F)F)c2)cc(C(=O)NCCCCCCOCc2ccc(OCc3ccccc3)cc2)cc1-c1cccc(C(F)(F)F)c1` is 127 to 130 °C; for `CCc1nc2cc(Nc3nccc(-c4ccc(N5CCNCC5)nc4)n3)ccc2o1` it is 156 to 159 °C; for `N#Cc1c(N2CCN(C(=O)c3cccs3)CC2)c2cccnc2[nH]c1=O` it is 320 °C. `CCOc1nc2ncnn2c2c1cnc1c2cnn1CC`: the melting point lay in the range of 196 to 197 °C. In the case of `C[C@@H](Nc1nnc(-c2ccccc2)c2ccccc12)C1CCCCC1` it was 164 to 167 °C; in that of `OCc1ccc(Cl)cc1C(O)c1ccccc1` (stereo unspecified), 102 to 107 °C. For `OC[C@@H](O)[C@@H]1OC[C@H](O)[C@H]1O` (racemic), the melting point is 69.5 to 71 °C. In the case of `CC(C)Sc1ccc(N)c(C#N)c1` it was 67 to 68 °C; in that of `CCOC(=O)C(=Cc1ccccc1)S(=O)(=O)NC(=O)Nc1nc(OC)cc(OC)n1`, 140 to 143 °C; in that of `CC(C)c1nc2c(c(-c3ccc(F)cc3)c1C(C)O)CCC2(C)C` (stereo unspecified), 90 to 92 °C.

For `Cc1c(CN(CCc2c(I)c3ccccc3n2C)C(=O)C(F)(F)F)ncn1S(=O)(=O)N(C)C`, the melting point was in the range of 141 to 143 °C. In the case of `CCOC(=O)c1nc2c(Cl)nc(Cl)c(Cl)n2c1Cl` it was 132 °C.

Molecule `CS(=O)(=O)OCC(O)(CC(Cl)(Cl)Cl)c1ccccc1` (stereo unspecified) gave a melting point of 128 to 130 °C. In the case of `O=C1Nc2ccc(Cl)cc2Cc2sccc21` it was 264 to 266 °C. In the case of `CCOC(=O)c1ccc(NCCCCCCCCc2ccccc2)cc1` it was 61 to 68 °C. In the case of `CN(C)c1cccc(-n2c(=O)c(CCCc3ccncc3)cc3cccnc32)c1` it was 124 to 127 °C; in that of `CCOC1c2ccccc2-c2[nH]c(=O)c(=O)[nH]c21` (stereo unspecified), > 300 °C. With `O=C(O)c1cc([N+](=O)[O-])ccc1Sc1cccc(Br)c1`, the melting point is 202 to 206 °C. Take `CCN(C)c1nc2cc(NC(=O)OC(C)(C)C)ccn2n1`: the melting point lay in the range of 181 to 183 °C. The figure for `CC1(C)CSc2sc(S(N)(=O)=O)cc2C1O` (stereo unspecified) is 158 to 159 °C; for `CC(C)(C)OC(=O)NC(COCc1ccccc1)c1nc2c(C(F)(F)F)cccc2c(O)c1C(=O)Nc1nccs1` (stereo unspecified) it is 208 °C. In the case of `O=C(c1ccc(F)c(Cc2ccc(=O)[nH]n2)c1)c1c(Cl)cc(Cl)cc1Cl` it was 185 °C; in that of `CCCCNC(=O)NS(=O)(=O)c1c(Cl)cccc1-c1ccccc1`, 184 to 186 °C. The figure for `CC1CC(C)CN(S(=O)(=O)c2cc(Cl)cc(C(=O)O)c2)C1` (stereo unspecified) is 226 to 231 °C; for `CCN(CCc1c[nH]c2ccc(F)cc12)C1COc2c(F)ccc(C(N)=O)c2C1` (stereo unspecified) it is 127 °C. In turn, `CC(N)Cn1ncc2ccc3c(c21)C(N)C(O)CO3` (stereo unspecified) showed a melting point of 84 to 88 °C. In the case of `N#Cc1ccc(-c2cc(-c3ccc(O)c(F)c3)nc3ccc(O)cc23)cc1` it was 266 to 267 °C; in that of `CCCCCCCCCCCCOC(CCCCCCCCCCCC)COCC(O)COc1ccc(N2CCOCC2)cc1` (stereo unspecified), 49 to 52 °C. The figure for `COc1cccc(OC)c1-c1cc(C(=O)NC2(C(=O)O)C3CCCC2CCC3)nn1-c1ccc(C(=O)N(C)CCCN(C)C)cc1C(C)C` (stereo unspecified) is 160 °C. In the case of `CN1CCNCCNCCNCCNCC1` it was 71 to 72.5 °C; in that of `CCCCCCCCCCCCCCCCCC(=O)C(=O)OCC`, 43 to 44 °C; in that of `CC(O)c1cnc(C(F)(F)F)nc1` (stereo unspecified), 43 to 45 °C. In the case of `COCCn1ccc2ccc(NC(=O)/C=C/c3ccc(C(C)(C)C)cc3)cc21`, the melting point came to 133 °C. In the case of `O=C(O)Cc1ccc(N2CC3CCCCC3C2=O)cc1` (stereo unspecified) it was 157 to 159 °C; in that of `Cc1c(CCCCCCCCCC(=O)O)cccc1C(=O)c1ccc(Cl)cc1`, 74 °C.

For `COc1ccc(C(=O)C(O)c2ccccc2)cc1` (stereo unspecified), the melting point was in the range of 99 to 101 °C.

On to `CNCC(O)(Cn1cncn1)c1ccc(Cl)cc1Cl` (stereo unspecified), for which the melting point lay in the range of 98 to 101 °C.

`O=S(=O)(Cl)c1nc2nc(OCC(F)(F)F)ccn2n1` yielded a melting point of 91 to 96 °C. The figure for `N#CCN(C1CC1)S(=O)(=O)Cc1cccc(C(F)(F)F)c1` is 70.1 to 71 °C.

Take `CC(C)OC(=O)C=C1CN=C(c2ccccc2F)c2cc(Cl)ccc2N1`: the melting point is 144 to 145 °C. In the case of `c1ccc(Cn2c(-c3ccc4c(c3)OCO4)nc3ccccc32)cc1` it was 143 to 145 °C; in that of `CCCCCCCCOc1ccc(-c2nc(-c3ccccc3)c(-c3ccccc3)n2CCCCCCCC(=O)O)cc1`, 114 to 115 °C; in that of `O=C(O)c1c(Cl)c([N+](=O)[O-])cc([N+](=O)[O-])c1Nc1ccc(OCc2ccccc2)cc1`, 208 to 211 °C. The figure for `CNC(=S)Nc1ncc(Cl)cc1Cl` is 105 to 109 °C; for `Nc1ncc(Cc2ccc3c(c2)OCO3)c(N)n1` it is 248 to 255 °C; for `CCOC(=O)c1c(N2CCN(C(=O)c3cccs3)CC2)c2ccccc2[nH]c1=O` it is 198 °C. `COc1ccc(CN(CCN(C)CCNC(=C[N+](=O)[O-])NCCCOc2cccc(CN3CCCCC3)c2)c2ccccn2)cc1` came in with a melting point of 102 to 104 °C. The figure for `Cc1nnc(-c2ccc3occ(-c4ccc5c(c4)C(C)(C)CS5=O)c3c2)o1` (stereo unspecified) is 179 to 180 °C; for `COc1ccc(C(=O)Nc2ccccc2)cc1NS(=O)(=O)c1cccc(C)c1` it is 195 to 197 °C. The figure for `O=c1[nH][nH]c(=O)n1-c1c(F)c(F)c(F)c(F)c1F` is 180 to 182 °C; for `O=C(CCl)Nc1cccc2c1C(=O)c1c(NC(=O)CCl)cccc1C2=O` it is 280 to 281 °C. For `N#CC1C(=O)NC(=O)C12C(=O)N(Cc1ccc(Br)cc1F)c1ccccc12` (stereo unspecified), the melting point lay in the range of 208 to 210 °C. In the case of `CC(=O)NC1CCCCC1` it was 108 to 109 °C.

As for `CCOC(=O)CC1C(=O)N(CCc2c[nH]c3cc(C)ccc23)CCN1C(=O)c1ccccc1` (stereo unspecified), the melting point was 155 °C. The figure for `COc1cc2c(c3c1OC(C)(C)C3)C(c1ccnc(-n3c(=O)ccc4ccccc43)c1)=NC(C)(C)C2` is 190 to 191 °C; for `CS(=O)(=O)c1ccc(-c2sc(NCc3ccccc3)nc2-c2ccc(F)cc2)cc1` it is 112 °C. On to `CCc1oc2ccccc2c1C(=O)N(C)Cc1ccc2cc(O)ccc2c1`, for which the melting point lay within 80 to 90 °C. In the case of `Nc1ccc2c(c1)CNC2` it was 113 to 119 °C; in that of `COc1ccc(C(=O)Nc2cccnc2Cl)cc1`, 125 °C.

Turning to `CC(C)(C)OC(=O)N1CCC[C@H]1Cn1ccc2c3ccn(Cc4ccc(F)cc4)c(=O)c3ccc21`, the melting point was in the range of 144 to 145 °C. In the case of `O=C(O)c1ccc(C(c2ccccc2)c2ccccc2)cn1` it was 189 to 191 °C. In the case of `COC(=O)c1cc(C(=O)OC)c(Br)cn1` it was 102 to 104 °C; in that of `COc1ccc(-c2nc(NC(C)=O)sc2-c2cccnc2)cc1`, 208 to 210 °C. The figure for `CNC1(C2CCCCC2)C(=O)Nc2ccc(Cl)cc21` (stereo unspecified) is 195 to 198 °C. Consider `CC=CCSc1cc(C(=O)O)cc(N)c1-c1ccccc1`, for which the melting point is 102 to 104 °C. The figure for `c1ccc(Cn2nnc3ccc(Cn4ccnc4)cc32)cc1` is 85.4 °C; for `Oc1ccc2cc(-c3cnc(-c4ccccc4)o3)ccc2c1` it is 235 to 238 °C. The figure for `COc1cccc2cc(C(=O)O)c(C(=O)O)cc12` is 210 to 212 °C. In the case of `Cc1ccc(-c2nc(CO[C@H]3CCC[C@@H](C(=O)N[C@H](C(=O)O)C(C)C)C3)c(C)o2)cc1` it was 195 to 196 °C; in that of `CC(=O)Nc1ccc(C(C)(C)C)cc1CN(C)C1CCCCC1`, 111 to 112 °C; in that of `O=C(O)COc1ccc(S(=O)(=O)C(Br)(Br)Br)cc1`, 238 to 246 °C. Consider `CCCC(=O)c1cnc2cc(CO)ccc2c1Nc1ccccc1C`, for which the melting point lay in the range of 176 to 178 °C.

The molecule `Oc1ccc(Nc2nc(NCc3ccco3)nc(Nc3ccc(F)c(F)c3)n2)cc1` registered a melting point of 75 to 77 °C. `CNC(=O)CCC(C)=S` registered a melting point of 67 to 70 °C. In the case of `CCOC(=O)C1=C(C(C)C)Nc2n[nH]cc2C1c1ccccc1OC` (stereo unspecified) it was 179 to 180 °C. In turn, `CON=C1CCC(N(C)C(=O)c2ccc3nonc3c2)CC1` (stereo unspecified) came in with a melting point of 167 to 168 °C.
